In patent US6737383B1, “Herbicidal oxadiazolidines” (priority 1999, dated 2004):

What was measured:
pigweed = assay: Test B pre/postemergence pigweed; format: in vivo, Amaranthus retroflexus
Outline: (§1)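 Herbicidal effect was estimated by eye on a ten-point control scale after plants spent twelve to sixteen days in a greenhouse following soil or foliar treatment. Foliar sprays targeted plants at one to four leaves; all doses were formulated in a non-phytotoxic solvent with surfactant.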

rape = assay: Test B pre/postemergence rape; format: in vivo, Brassica napus
Outline: as §1

corn = assay: Test B pre/postemergence corn; format: in vivo, Zea mays
Outline: as §1

soybean = assay: Test B pre/postemergence soybean; format: in vivo, Glycine max
Outline: as §1

surinam grass = assay: Test B pre/postemergence surinam grass; format: in vivo, Brachiaria decumbens
Outline: as §1

blackgrass = assay: Test B pre/postemergence blackgrass; format: in vivo, Alopecurus myosuroides
Outline: as §1

cocklebur = assay: Test B pre/postemergence cocklebur; format: in vivo, Xanthium strumarium
Outline: as §1

bedstraw = assay: Test B pre/postemergence bedstraw; format: in vivo, Galium aparine
Outline: as §1

purple nutsedge = assay: Test B pre/postemergence purple nutsedge; format: in vivo, Cyperus rotundus
Outline: as §1

sugar beet = assay: Test B pre/postemergence sugar beet; format: in vivo, Beta vulgaris
Outline: as §1

giant foxtail = assay: Test B pre/postemergence giant foxtail; format: in vivo, Setaria faberii
Outline: as §1

velvetleaf = assay: Test B pre/postemergence velvetleaf; format: in vivo, Abutilon theophrasti
Outline: as §1

morningglory = assay: Test B pre/postemergence morningglory; format: in vivo, Ipomoea hederacea
Outline: as §1

[1] = Postemergence, Rate 125 g/ha, scale of 0 to 10 where 0 is no effect and 10 is complete control
[2] = Preemergence, Rate 62 g/ha, scale 0 to 10 (0 no effect, 10 complete control)
[3] = Preemergence, Rate 125 g/ha, 0 is no effect, 10 is complete control
[4] = Preemergence, Rate 250 g/ha, scale 0 to 10, 0 is no effect, 10 is complete control
[5] = Preemergence, Rate 500 g/ha, scale 0 to 10 (0 no effect, 10 complete control)
[6] = Rate 62 g/ha, Postemergence, scale of 0 to 10 where 0 is no effect and 10 is complete control
[7] = Rate 250 g/ha, Postemergence, scale 0 to 10, 0 is no effect, 10 is complete control
[8] = Rate 500 g/ha, Postemergence, scale 0 to 10

CCCn1c(=O)on(C(=O)N(c2ccc(F)cc2F)C(C)C)c1=O [Compound 130]
Redroot pigweed plant response rating (pigweed; [1]): 3 | Redroot pigweed plant response rating (pigweed; [2]): 6 | Redroot pigweed plant response rating (0 to 10 scale) (pigweed; [3]): 10 | Redroot pigweed plant response rating (pigweed; [4]): 10 | Redroot pigweed plant response rating (pigweed; [5]): 10 | Redroot pigweed plant response rating (pigweed; [6]): 0 | Plant response rating, Redroot pigweed (pigweed; [7]): 3 | Redroot pigweed plant response rating (pigweed; [8]): 6 | Rape plant response rating (rape; [1]): 2 | Rape plant response rating (rape; [2]): 4 | Rape plant response rating (0 to 10 scale) (rape; [3]): 9 | Rape plant response rating (rape; [4]): 10 | Rape plant response rating (rape; [5]): 10 | Rape plant response rating (rape; [6]): 0 | Rape plant response rating (rape; [8]): 2 | Corn plant response rating (corn; [1]): 0 | Corn plant response rating (corn; [2]): 3 | Corn plant response rating (0 to 10 scale) (corn; [3]): 3 | Corn plant response rating (corn; [4]): 6 | Corn plant response rating (corn; [5]): 6 | Corn plant response rating (corn; [6]): 0 | Plant response rating, Corn (corn; [7]): 2 | Corn plant response rating (corn; [8]): 3 | Soybean plant response rating (soybean; [1]): 2 | Soybean plant response rating (soybean; [2]): 0 | Soybean plant response rating (0 to 10 scale) (soybean; [3]): 0 | Soybean plant response rating (soybean; [4]): 3 | Soybean plant response rating (soybean; [5]): 4 | Soybean plant response rating (soybean; [6]): 1 | Plant response rating, Soybean (soybean; [7]): 3 | Soybean plant response rating (soybean; [8]): 5 | B. signalgrass plant response rating (surinam grass; [1]): 2 | B. signalgrass plant response rating (surinam grass; [2]): 6 | B. signalgrass plant response rating (0 to 10 scale) (surinam grass; [3]): 9 | B. signalgrass plant response rating (surinam grass; [4]): 9 | B. signalgrass plant response rating (surinam grass; [5]): 9 | B. signalgrass plant response rating (surinam grass; [6]): 1 | Plant response rating, B. signalgrass (surinam grass; [7]): 7 | B. signalgrass plant response rating (surinam grass; Rate 500 g/ha, Postemergence, scale of 0 to 10 where 0 is no effect and 10 is complete control): 8 | Blackgrass plant response rating (blackgrass; [1]): 5 | Blackgrass plant response rating (blackgrass; [2]): 5 | Blackgrass plant response rating (0 to 10 scale) (blackgrass; [3]): 9 | Blackgrass plant response rating (blackgrass; [4]): 9 | Blackgrass plant response rating (blackgrass; [5]): 10 | Blackgrass plant response rating (blackgrass; [6]): 3 | Plant response rating, Blackgrass (blackgrass; [7]): 7 | Blackgrass plant response rating (blackgrass; [8]): 8 | Cocklebur plant response rating (cocklebur; [1]): 0 | Cocklebur plant response rating (cocklebur; [2]): 0 | Cocklebur plant response rating (0 to 10 scale) (cocklebur; [3]): 0 | Cocklebur plant response rating (cocklebur; [4]): 0 | Cocklebur plant response rating (cocklebur; [5]): 0 | Cocklebur plant response rating (cocklebur; [6]): 0 | Plant response rating, Cocklebur (cocklebur; [7]): 0 | Cocklebur plant response rating (cocklebur; [8]): 3 | Bedstraw plant response rating (bedstraw; [2]): 0 | Bedstraw plant response rating (0 to 10 scale) (bedstraw; [3]): 0 | Bedstraw plant response rating (bedstraw; [4]): 2 | Bedstraw plant response rating (bedstraw; [5]): 10 | Bedstraw plant response rating (bedstraw; [6]): 0 | Plant response rating, Bedstraw (bedstraw; [7]): 6 | Bedstraw plant response rating (bedstraw; Rate 500 g/ha, Postemergence, scale 0 to 10, 0 no effect, 10 complete control): 8 | Nutsedge plant response rating (purple nutsedge; [1]): 0 | Nutsedge plant response rating (purple nutsedge; [2]): 0 | Nutsedge plant response rating (0 to 10 scale) (purple nutsedge; [3]): 0 | Nutsedge plant response rating (purple nutsedge; [4]): 0 | Nutsedge plant response rating (purple nutsedge; [5]): 3 | Nutsedge plant response rating (purple nutsedge; [6]): 0 | Plant response rating, Nutsedge (purple nutsedge; [7]): 0 | Nutsedge plant response rating (purple nutsedge; [8]): 0 | Sugarbeets plant response rating (sugar beet; [1]): 0 | Sugarbeets plant response rating (sugar beet; [2]): 7 | Sugarbeets plant response rating (0 to 10 scale) (sugar beet; [3]): 9 | Sugarbeets plant response rating (sugar beet; [4]): 10 | Sugarbeets plant response rating (sugar beet; [5]): 10 | Sugarbeets plant response rating (sugar beet; [6]): 0 | Plant response rating, Sugarbeets (sugar beet; [7]): 2 | Sugarbeets plant response rating (sugar beet; [8]): 4 | Giant foxtail plant response rating (giant foxtail; [1]): 9 | Giant foxtail plant response rating (giant foxtail; [2]): 7 | Giant foxtail plant response rating (0 to 10 scale) (giant foxtail; [3]): 9 | Giant foxtail plant response rating (giant foxtail; [4]): 10 | Giant foxtail plant response rating (giant foxtail; [5]): 10 | Giant foxtail plant response rating (giant foxtail; [6]): 8 | Plant response rating, Giant foxtail (giant foxtail; [7]): 9 | Giant foxtail plant response rating (giant foxtail; [8]): 9 | Velvetleaf plant response rating (velvetleaf; [1]): 3 | Velvetleaf plant response rating (velvetleaf; [2]): 5 | Velvetleaf plant response rating (0 to 10 scale) (velvetleaf; [3]): 8 | Velvetleaf plant response rating (velvetleaf; [4]): 8 | Velvetleaf plant response rating (velvetleaf; [5]): 10 | Velvetleaf plant response rating (velvetleaf; [6]): 0 | Plant response rating, Velvetleaf (velvetleaf; [7]): 5 | Velvetleaf plant response rating (velvetleaf; [8]): 5 | Morningglory plant response rating (morningglory; [1]): 2 | Morningglory plant response rating (morningglory; [2]): 0 | Morningglory plant response rating (0 to 10 scale) (morningglory; [3]): 0 | Morningglory plant response rating (morningglory; [4]): 3 | Morningglory plant response rating (morningglory; [5]): 4 | Morningglory plant response rating (morningglory; [6]): 2 | Plant response rating, Morningglory (morningglory; [7]): 2 | Morningglory plant response rating (morningglory; [8]): 3
